The values below come from patent publication US7446199B2, “Compositions useful as inhibitors of protein kinases” (Vertex Pharmaceuticals Incorporated, priority 2003, dated 2008).

What all share (assay type): biochemical
For one assay, the target named is c-Met (Homo sapiens, UniProt P08581). As to the kind of experiment: Ki determination for the inhibition of c-Met, coupled enzyme system. Conditions: 200 μM ATP, 10 μM polyGluTyr, 80 nM c-Met, 30° C. The procedure: Compounds were screened for their ability to inhibit c-Met kinase activity using a standard coupled enzyme system (Fox et al., Protein Sci. 1998, 7, 2249). Reactions were carried out in a solution containing 100 mM HEPES (pH 7.5), 10 mM MgCl2, 25 mM NaCl, 300 μM NADH, 1 mM DTT, and 1.5% DMSO. Final substrate concentrations in the assay were 200 μM ATP (Sigma Chemicals, St Louis, Mo.) and 10 μM polyGluTyr (Sigma Chemical Company, St. Louis). Reactions were carried out at 30° C. and 80 nM c-Met. Final concentrations of the components of the coupled enzyme system were 2.5 mM phosphoenolpyruvate, 300 μM NADH, 30 μg/ml pyruvate kinase and 10 μg/ml lactate dehydrogenase.
An assay stock buffer solution was prepared containing all of the reagents listed above with the exception of ATP and a test compound of the present invention. The assay stock buffer solution (175 μl) was incubated in a 96 well plate with 5 μl of the test compound of the present invention at final concentrations spanning 0.006 μM to 12.5 μM at 30° C. for 10 minutes. Typically, a 12-point titration was conducted by preparing serial dilutions (from 10 mM compound stocks) with DMSO of the test compounds of the present invention in daughter plates. The reaction was initiated by the addition of 20 μl of ATP (final concentration 200 μM). Rates of reaction were obtained using a Molecular Devices Spectramax plate reader (Sunnyvale, Calif.) over 10 minutes at 30° C. The Ki values were determined from the rate data as a function of inhibitor concentration.

For the next assay, the target named is GSK-3β, (AA 1-420) (Homo sapiens, UniProt P49841). As to the kind of experiment: GSK-3 inhibition assay, coupled enzyme system. Conditions: 20 μM ATP, 300 μM peptide, 20 nM GSK-3b, 30° C.; read-out: Ki values (GSK3). The procedure: Compounds of the present invention were screened for their ability to inhibit GSK-3β, (AA 1-420) activity using a standard coupled enzyme system (Fox et al., Protein Sci. 1998, 7, 2249). Reactions were carried out in a solution containing 100 mM HEPES (pH 7.5), 10 mM MgCl2, 25 mM NaCl, 300 μM NADH, 1 mM DTT and 1.5% DMSO. Final substrate concentrations in the assay were 20 μM ATP (Sigma Chemicals, St Louis, Mo.) and 300 μM peptide (American Peptide, Sunnyvale, Calif.). Reactions were carried out at 30° C. and 20 nM GSK-3b. Final concentrations of the components of the coupled enzyme system were 2.5 mM phosphoenolpyruvate, 300 μM NADH, 30 μg/ml pyruvate kinase and 10 μg/ml lactate dehydrogenase.
An assay stock buffer solution was prepared containing all of the reagents listed above with the exception of ATP and the test compound of the present invention. The assay stock buffer solution (175 μl) was incubated in a 96 well plate with 5 μl of the test compound of the present invention at final concentrations spanning 0.002 μM to 30 μM at 30° C. for 10 min. Typically, a 12 point titration was conducted by preparing serial dilutions (from 10 mM compound stocks) with DMSO of the test compounds of the present invention in daughter plates. The reaction was initiated by the addition of 20 μl of ATP (final concentration 20 μM). Rates of reaction were obtained using a Molecular Devices Spectramax plate reader (Sunnyvale, Calif.) over 10 min at 30° C. The Ki values were determined from the rate data as a function of inhibitor concentration.

The next assay has as its target T1, JAK3 (Homo sapiens, UniProt P52333).
T1 sequence (P52333 1-1124): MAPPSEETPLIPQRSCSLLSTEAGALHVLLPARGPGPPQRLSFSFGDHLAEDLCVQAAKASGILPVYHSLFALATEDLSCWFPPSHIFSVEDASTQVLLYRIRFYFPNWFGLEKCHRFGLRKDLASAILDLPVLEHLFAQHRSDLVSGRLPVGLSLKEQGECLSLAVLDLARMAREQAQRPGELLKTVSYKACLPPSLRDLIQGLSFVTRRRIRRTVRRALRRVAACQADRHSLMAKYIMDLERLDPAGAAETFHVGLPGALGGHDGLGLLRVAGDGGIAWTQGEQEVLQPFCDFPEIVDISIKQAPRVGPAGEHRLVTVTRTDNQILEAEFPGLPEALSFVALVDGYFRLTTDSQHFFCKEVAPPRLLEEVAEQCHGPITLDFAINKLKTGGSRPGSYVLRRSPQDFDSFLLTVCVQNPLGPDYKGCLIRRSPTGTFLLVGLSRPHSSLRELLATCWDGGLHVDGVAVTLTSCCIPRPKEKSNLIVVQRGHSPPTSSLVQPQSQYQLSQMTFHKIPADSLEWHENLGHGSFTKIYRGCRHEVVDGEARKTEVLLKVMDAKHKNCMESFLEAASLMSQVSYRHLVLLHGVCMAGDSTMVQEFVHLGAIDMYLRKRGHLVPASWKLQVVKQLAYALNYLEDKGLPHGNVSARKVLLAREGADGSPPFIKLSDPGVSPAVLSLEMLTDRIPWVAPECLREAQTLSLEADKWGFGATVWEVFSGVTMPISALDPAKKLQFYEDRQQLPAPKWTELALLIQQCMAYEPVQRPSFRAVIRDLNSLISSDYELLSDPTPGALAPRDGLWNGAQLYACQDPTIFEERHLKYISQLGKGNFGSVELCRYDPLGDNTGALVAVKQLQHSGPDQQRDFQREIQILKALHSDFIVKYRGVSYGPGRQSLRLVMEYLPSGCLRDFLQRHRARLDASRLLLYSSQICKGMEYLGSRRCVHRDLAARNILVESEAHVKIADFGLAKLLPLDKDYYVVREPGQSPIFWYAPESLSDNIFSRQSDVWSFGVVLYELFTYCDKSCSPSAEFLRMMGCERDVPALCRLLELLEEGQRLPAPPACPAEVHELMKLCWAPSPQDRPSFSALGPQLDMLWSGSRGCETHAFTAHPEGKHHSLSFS
Kind of assay: JAK3 inhibition assay (ELISA, Poly (Glu, Ala, Tyr) coated plates). As to conditions: 2 mM ATP, 60 minutes at 30° C. As for the experimental part:
Compound inhibition of JAK3 was assayed by the method described by G. R. Brown, et al., Bioorg. Med. Chem. Lett. 2000, vol. 10, pp 575-579 in the following manner. Into Maxisorb plates, previously coated at 4° C. with Poly (Glu, Ala, Tyr) 6:3:1 then washed with phosphate buffered saline 0.05% and Tween (PBST), was added 2 mM ATP, 5 mM MgCl2, and a solution of compound in DMSO. The reaction was started with JAK enzyme and the plates incubated for 60 minutes at 30° C. The plates were then washed with PBST, […] HRP-Conjugated 4G10 antibody was added, and the plate incubated for 90 minutes at 30° C. The plate was again washed with PBST, […] TMB solution is added, and the plates were incubated for another 30 minutes at 30° C. Sulfuric acid ([…] of 1M) was added to stop the reaction and the plate is read at 450 nm to obtain the optical densities for analysis to determine IC50 values.
On the technique in general: In an ELISA, binding on a coated surface is turned into a signal by an enzyme label.

A further assay deals with KDR (Homo sapiens, UniProt P35968). Kind of assay: KDR enzyme assay, coupled enzyme assay. As to conditions: 300 μM ATP, 10 μM poly E4Y, 30 nM KDR, 37° C. The procedure: Compounds were screened for their ability to inhibit KDR using a standard coupled enzyme assay (Fox et al., Protein Sci., (1998) 7, 2249). Assays were carried out in a mixture of 200 mM HEPES 7.5, 10 mM MgCl2, 25 mM NaCl, 1 mM DTT and 1.5% DMSO. Final substrate concentrations in the assay were 300 μM ATP (Sigma Chemicals) and 10 μM poly E4Y (Sigma). Assays were carried out at 37° C. and 30 nM KDR. Final concentrations of the components of the coupled enzyme system were 2.5 mM phosphoenolpyruvate, 200 μM NADH, 30 μg/ML pyruvate kinase and 10 μg/ml lactate dehydrogenase.
An assay stock buffer solution was prepared containing all of the reagents listed above, with the exception of ATP and the test compound of interest. 177 μl of the stock solution was placed in a 96 well plate followed by addition of 3 μl of 2 mM DMSO stock containing the test compound (final compound concentration 30 μM). The plate was preincubated for about 10 minutes at 37° C. and the reaction initiated by addition of 20 μl of ATP (final concentration 300 μM). Rates of reaction were obtained using a Molecular Devices plate reader (Sunnyvale, Calif.) over a 5 minute read time at 37° C.

Chain of KDR (P35968 20-1356): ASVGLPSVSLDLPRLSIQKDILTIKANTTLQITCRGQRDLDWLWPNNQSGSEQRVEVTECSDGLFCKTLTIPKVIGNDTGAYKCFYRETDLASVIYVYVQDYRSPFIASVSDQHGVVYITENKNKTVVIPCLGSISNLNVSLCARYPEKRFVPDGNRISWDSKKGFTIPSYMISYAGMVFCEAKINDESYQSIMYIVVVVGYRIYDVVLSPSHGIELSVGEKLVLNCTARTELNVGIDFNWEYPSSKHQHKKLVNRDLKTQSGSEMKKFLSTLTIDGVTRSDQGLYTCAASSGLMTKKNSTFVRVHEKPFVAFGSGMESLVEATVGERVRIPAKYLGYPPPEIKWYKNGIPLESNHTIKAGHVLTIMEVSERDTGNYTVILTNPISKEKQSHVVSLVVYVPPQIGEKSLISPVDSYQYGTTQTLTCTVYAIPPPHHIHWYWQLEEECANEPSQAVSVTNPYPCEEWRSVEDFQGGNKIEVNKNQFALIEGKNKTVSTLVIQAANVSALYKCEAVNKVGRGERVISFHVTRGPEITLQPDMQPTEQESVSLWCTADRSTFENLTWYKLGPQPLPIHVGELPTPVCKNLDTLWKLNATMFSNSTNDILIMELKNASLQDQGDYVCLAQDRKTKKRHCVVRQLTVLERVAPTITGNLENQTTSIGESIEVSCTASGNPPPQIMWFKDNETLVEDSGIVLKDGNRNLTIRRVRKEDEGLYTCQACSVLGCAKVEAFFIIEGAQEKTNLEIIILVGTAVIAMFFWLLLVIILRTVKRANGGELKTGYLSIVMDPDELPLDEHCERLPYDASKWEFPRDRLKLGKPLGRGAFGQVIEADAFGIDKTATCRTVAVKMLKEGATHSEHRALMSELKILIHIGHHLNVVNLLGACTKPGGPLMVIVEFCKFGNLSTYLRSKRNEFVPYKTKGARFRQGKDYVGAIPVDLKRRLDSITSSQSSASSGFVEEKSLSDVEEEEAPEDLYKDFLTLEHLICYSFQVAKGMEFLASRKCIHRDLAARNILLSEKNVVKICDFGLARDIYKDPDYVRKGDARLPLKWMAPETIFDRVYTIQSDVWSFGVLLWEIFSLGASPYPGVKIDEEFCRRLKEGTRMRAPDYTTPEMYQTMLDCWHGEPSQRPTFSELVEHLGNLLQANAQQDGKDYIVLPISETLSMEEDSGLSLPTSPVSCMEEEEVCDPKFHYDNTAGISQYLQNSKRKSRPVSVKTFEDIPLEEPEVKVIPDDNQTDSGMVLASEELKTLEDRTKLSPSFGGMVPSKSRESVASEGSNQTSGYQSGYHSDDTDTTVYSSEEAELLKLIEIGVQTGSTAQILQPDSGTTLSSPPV
Chain of GSK-3β, (AA 1-420) (P49841 whole entry, the tested form may be a part): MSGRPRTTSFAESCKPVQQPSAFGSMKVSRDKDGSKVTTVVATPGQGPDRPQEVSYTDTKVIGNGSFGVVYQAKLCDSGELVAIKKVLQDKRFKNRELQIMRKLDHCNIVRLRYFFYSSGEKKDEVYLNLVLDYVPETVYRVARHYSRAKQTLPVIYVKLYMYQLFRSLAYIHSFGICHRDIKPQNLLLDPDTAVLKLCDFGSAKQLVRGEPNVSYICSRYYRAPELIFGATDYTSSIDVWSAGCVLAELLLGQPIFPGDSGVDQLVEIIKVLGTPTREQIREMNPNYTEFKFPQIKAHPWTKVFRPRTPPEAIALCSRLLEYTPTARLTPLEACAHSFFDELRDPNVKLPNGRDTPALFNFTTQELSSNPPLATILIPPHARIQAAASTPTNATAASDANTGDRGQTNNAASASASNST
Chain of c-Met (P08581 25-1390): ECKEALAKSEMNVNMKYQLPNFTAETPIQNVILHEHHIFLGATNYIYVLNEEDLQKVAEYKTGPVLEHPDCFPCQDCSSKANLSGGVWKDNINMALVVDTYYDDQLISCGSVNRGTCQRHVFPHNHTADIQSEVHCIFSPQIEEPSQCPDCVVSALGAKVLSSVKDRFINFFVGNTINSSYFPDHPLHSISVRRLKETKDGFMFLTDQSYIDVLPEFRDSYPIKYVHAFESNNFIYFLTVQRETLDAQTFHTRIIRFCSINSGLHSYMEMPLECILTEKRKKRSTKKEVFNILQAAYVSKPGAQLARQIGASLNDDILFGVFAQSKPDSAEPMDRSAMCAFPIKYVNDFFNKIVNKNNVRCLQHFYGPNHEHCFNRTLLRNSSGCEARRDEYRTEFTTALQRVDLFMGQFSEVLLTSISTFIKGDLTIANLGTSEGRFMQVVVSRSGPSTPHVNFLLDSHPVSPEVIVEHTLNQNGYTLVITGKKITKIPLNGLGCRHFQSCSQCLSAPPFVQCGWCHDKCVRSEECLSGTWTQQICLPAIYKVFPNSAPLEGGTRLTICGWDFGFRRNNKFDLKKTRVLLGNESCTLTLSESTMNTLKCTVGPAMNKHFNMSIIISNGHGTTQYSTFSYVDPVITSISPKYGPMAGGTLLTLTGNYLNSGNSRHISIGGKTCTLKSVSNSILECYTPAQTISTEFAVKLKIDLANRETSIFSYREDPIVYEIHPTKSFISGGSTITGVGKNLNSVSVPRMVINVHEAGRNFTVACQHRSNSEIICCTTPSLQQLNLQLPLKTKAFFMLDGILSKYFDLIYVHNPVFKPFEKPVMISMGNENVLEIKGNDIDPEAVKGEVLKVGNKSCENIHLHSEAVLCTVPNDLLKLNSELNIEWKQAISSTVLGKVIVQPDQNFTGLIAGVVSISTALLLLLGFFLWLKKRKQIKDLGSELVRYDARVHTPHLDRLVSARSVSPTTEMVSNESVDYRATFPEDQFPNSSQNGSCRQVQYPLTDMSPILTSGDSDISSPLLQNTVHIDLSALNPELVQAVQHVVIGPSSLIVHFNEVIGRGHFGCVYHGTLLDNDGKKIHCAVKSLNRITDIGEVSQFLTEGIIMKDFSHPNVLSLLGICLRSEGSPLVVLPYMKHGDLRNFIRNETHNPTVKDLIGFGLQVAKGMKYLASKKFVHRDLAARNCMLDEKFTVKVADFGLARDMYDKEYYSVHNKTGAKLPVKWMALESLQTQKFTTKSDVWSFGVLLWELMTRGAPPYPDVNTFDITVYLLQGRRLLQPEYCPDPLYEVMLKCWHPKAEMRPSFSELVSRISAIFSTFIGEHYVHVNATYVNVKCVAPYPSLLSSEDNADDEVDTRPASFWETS

For orientation: Ki means a dissociation constant, usually derived from enzyme kinetics or from competition with a known ligand. The compound `Fc1cccc(-n2nnnc2-c2c[nH]c3ncccc23)c1F` [Compound 11, 3-[1-(2,3-Difluoro-phenyl)-1H-tetrazol-5-yl]-1H-pyrrolo [2,3-b]pyridine] yielded a Ki at c-Met of 1000 to 12500 nM.

`CCNc1ccc2c(-c3oncc3-c3cccc(F)c3F)n[nH]c2n1` [Compound 30, {3-[4-(2,3-Difluoro-phenyl)-isoxazol-5-yl]-1H-pyrazolo[3,4-b]pyridin-6-yl}-ethyl-amine] yielded a Ki at c-Met of 1000 to 12500 nM.

On c-Met, `CN(C)c1ccc2c(-c3oncc3-c3cccc(F)c3F)n[nH]c2n1` [Compound 32] gave a Ki of 1000 to 12500 nM.

As for `Fc1cccc(-c2cnoc2-c2c[nH]c3c(F)cccc23)c1F` [Compound 33, 3-[4-(2,3-Difluoro-phenyl)-isoxazol-5-yl]-7-fluoro-1H-indole], the inhibition constant Ki at GSK-3β, (AA 1-420) lay within 1000 to 12500 nM.

`c1ccc(-c2cnoc2-c2c[nH]c3ncccc23)nc1` [Compound 50, 3-(4-Pyridin-2-yl-isoxazol-5-yl)-1H-pyrrolo[2,3-b]pyridine] returned a Ki on JAK3 of 1000 to 12500 nM.

As for `COc1cccc(-c2cnoc2-c2c[nH]c3ncccc23)c1OC` [Compound 51, 3-[4-(2,3-Dimethoxy-phenyl)-isoxazol-5-yl]-1H-pyrrolo[2,3-b]pyridine], the inhibitory constant (Ki) at c-Met was 1000 to 12500 nM; on JAK3, 200 to 1000 nM; at KDR, 1000 to 12500 nM.

Turning to `c1cncc(-c2cnoc2-c2c[nH]c3ncccc23)c1` [Compound 52, 3-(4-Pyridin-3-yl-isoxazol-5-yl)-1H-pyrrolo[2,3-b]pyridine], the inhibitory constant (Ki) at c-Met fell in the range of 1000 to 12500 nM; at GSK-3β, (AA 1-420) it was 1000 to 12500 nM; on JAK3 it was 1000 to 12500 nM.

With `N#Cc1ccc(-c2cnc3[nH]cc(-c4oncc4-c4cccc(F)c4F)c3c2)cc1` [Compound 89, 4-{3-[4-(2,3-Difluoro-phenyl)-isoxazol-5-yl]-1H-pyrrolo [2,3-b]pyridin-5-yl}-benzonitrile], the Ki on c-Met was less than 200 nM; at GSK-3β, (AA 1-420), 200 to 1000 nM; at KDR it was less than 200 nM.

On c-Met, `Fc1cccc(-c2cnoc2-c2c[nH]c3nc(N4CCCC4)ccc23)c1F` [Compound 100, 3-[4-(2,3-Difluoro-phenyl)-isoxazol-5-yl]-6-pyrrolidin-1-yl-1H-pyrrolo[2,3-b]pyridine] gave a Ki of 1000 to 12500 nM.

On c-Met, `Fc1cccc(-c2cnoc2-c2c[nH]c3nc(Cl)ccc23)c1F` [Compound 101, 6-Chloro-3-[4-(2,3-difluoro-phenyl)-isoxazol-5-yl]-1H-pyrrolo[2,3-b]pyridine] displayed a Ki of 1000 to 12500 nM.

Compound `Fc1cccc(-n2cnnc2-c2c[nH]c3ncccc23)c1F` [Compound 107, 3-[4-(2,3-Difluoro-phenyl)-4H-[1,2,4]triazol-3-yl]-1H-pyrrolo[2,3-b]pyridine] gave a Ki at c-Met of 1000 to 12500 nM.

At c-Met, `COC(=O)Cn1ccc2c(-c3oncc3-c3cccc(F)c3F)c[nH]c2c1=O` [Compound 146, {3-[4-(2,3-Difluoro-phenyl)-isoxazol-5-yl]-7-oxo-1,7-di hydro-pyrrolo[2,3-c]pyridin-6-yl}-acetic acid methyl ester] came in with a Ki of 1000 to 12500 nM.

`O=c1c2[nH]cc(-c3oncc3-c3cccc(F)c3F)c2ccn1Cc1ccccc1` [Compound 147, 6-Benzyl-3-[4-(2,3-difluoro-phenyl)-isoxazol-5-yl]-1,6-dihydro-pyrrolo[2,3-c]pyridin-7-one]: the Ki at c-Met fell in the range of 1000 to 12500 nM.

Turning to `Fc1cccc(-c2cnoc2-c2n[nH]c3ncc(Br)cc23)c1F` [Compound 148], the Ki is 200 to 1000 nM on c-Met; 1000 to 12500 nM at GSK-3β, (AA 1-420); 200 to 1000 nM on KDR.

Consider `[O-][n+]1cccc2c(-c3oncc3-c3cccc(F)c3F)c[nH]c21` [Compound 151], for which the Ki at c-Met lay in the range of 1000 to 12500 nM; on GSK-3β, (AA 1-420) it was 1000 to 12500 nM.
